Test results reported in ChEMBL document CHEMBL3045319, “Synthesis, antitumor activity, and structureactivity relationship of some 4H-pyrano[3,2-h]quinoline and 7H-pyrimido[4,5:6,5]pyrano[3,2-h]quinoline derivatives” (Med Chem Res, 2013).
≈ marks a conversion by molar mass, not a printed value.

Key:
HepG2 [1] = assay: Cytotoxicity against Homo sapiens (human) HepG2 cells after 48 hr by MTT assay; format: functional, cell-based
HepG2 [2] = assay: Cytotoxicity against Homo sapiens (human) HepG2 cells assessed as cell viability at 1.56 ug/ml after 48 hr by MTT assay relative to control; format: functional; conditions: HepG2, 48 h, read-out: Activity
HepG2 [3] = assay: Cytotoxicity against Homo sapiens (human) HepG2 cells assessed as cell viability at 3.125 ug/ml after 48 hr by MTT assay relative to control; format: functional; conditions: HepG2, 48 h, read-out: Activity
HepG2 [4] = assay: Cytotoxicity against Homo sapiens (human) HepG2 cells assessed as cell viability at 6.25 ug/ml after 48 hr by MTT assay relative to control; format: functional; conditions: HepG2, 48 h, read-out: Activity
HepG2 [5] = assay: Cytotoxicity against Homo sapiens (human) HepG2 cells assessed as cell viability at 12.5 ug/ml after 48 hr by MTT assay relative to control; format: functional; conditions: HepG2, 48 h, read-out: Activity
HepG2 [6] = assay: Cytotoxicity against Homo sapiens (human) HepG2 cells assessed as cell viability at 25 ug/ml after 48 hr by MTT assay relative to control; format: functional; conditions: HepG2, 48 h, read-out: Activity
HepG2 [7] = assay: Cytotoxicity against Homo sapiens (human) HepG2 cells assessed as cell viability at 50 ug/ml after 48 hr by MTT assay relative to control; format: functional; conditions: HepG2, 48 h, read-out: Activity
[8] = Cytotoxicity against Homo sapiens (human) HCT cells after 48 hr by MTT assay; format: functional, cell-based
[9] = Cytotoxicity against Homo sapiens (human) HCT cells assessed as cell viability at 1.56 ug/ml after 48 hr by MTT assay relative to control; format: functional; conditions: read-out: Activity
[10] = Cytotoxicity against Homo sapiens (human) HCT cells assessed as cell viability at 6.25 ug/ml after 48 hr by MTT assay relative to control; format: functional; conditions: read-out: Activity
MCF7 [11] = assay: Cytotoxicity against Homo sapiens (human) MCF7 cells assessed as cell viability at 1.56 ug/ml after 48 hr by MTT assay relative to control; format: functional; conditions: MCF7, 48 h, read-out: Activity
MCF7 [12] = assay: Cytotoxicity against Homo sapiens (human) MCF7 cells assessed as cell viability at 3.125 ug/ml after 48 hr by MTT assay relative to control; format: functional; conditions: MCF7, 48 h, read-out: Activity
MCF7 [13] = assay: Cytotoxicity against Homo sapiens (human) MCF7 cells assessed as cell viability at 12.5 ug/ml after 48 hr by MTT assay relative to control; format: functional; conditions: MCF7, 48 h, read-out: Activity
MCF7 [14] = assay: Cytotoxicity against Homo sapiens (human) MCF7 cells assessed as cell viability at 6.25 ug/ml after 48 hr by MTT assay relative to control; format: functional; conditions: MCF7, 48 h, read-out: Activity
MCF7 [15] = assay: Cytotoxicity against Homo sapiens (human) MCF7 cells assessed as cell viability at 50 ug/ml after 48 hr by MTT assay relative to control; format: functional; conditions: MCF7, 48 h, read-out: Activity
MCF7 [16] = assay: Cytotoxicity against Homo sapiens (human) MCF7 cells assessed as cell viability at 25 ug/ml after 48 hr by MTT assay relative to control; format: functional; conditions: MCF7, 48 h, read-out: Activity
[17] = Cytotoxicity against Homo sapiens (human) HCT cells assessed as cell viability at 3.125 ug/ml after 48 hr by MTT assay relative to control; format: functional; conditions: read-out: Activity
[18] = Cytotoxicity against Homo sapiens (human) HCT cells assessed as cell viability at 12.5 ug/ml after 48 hr by MTT assay relative to control; format: functional; conditions: read-out: Activity
[19] = Cytotoxicity against Homo sapiens (human) HCT cells assessed as cell viability at 25 ug/ml after 48 hr by MTT assay relative to control; format: functional; conditions: read-out: Activity
[20] = Cytotoxicity against Homo sapiens (human) HCT cells assessed as cell viability at 50 ug/ml after 48 hr by MTT assay relative to control; format: functional; conditions: read-out: Activity
MCF7 [21] = assay: Cytotoxicity against Homo sapiens (human) MCF7 cells after 48 hr by MTT assay; format: functional, cell-based; conditions: MCF7, 48 h
[22] = Homo sapiens, HepG2, 48 h, read-out: IC50

Structure (SMILES) | viability at 1.56 µg/mL (HepG2 [2]) | viability at 3.125 µg/mL (HepG2 [3]) | viability at 6.25 µg/mL (HepG2 [4]) | viability at 12.5 µg/mL (HepG2 [5]) | viability at 25 µg/mL (HepG2 [6]) | viability at 50 µg/mL (HepG2 [7]) | IC50 [8] | viability at 1.56 µg/mL [9] | viability at 6.25 µg/mL [10] | viability at 1.56 µg/mL (MCF7 [11]) | viability at 3.125 µg/mL (MCF7 [12]) | viability at 12.5 µg/mL (MCF7 [13]) | viability at 6.25 µg/mL (MCF7 [14]) | viability at 50 µg/mL (MCF7 [15]) | viability at 25 µg/mL (MCF7 [16]) | viability at 3.125 µg/mL [17] | viability at 12.5 µg/mL [18] | viability at 25 µg/mL [19] | viability at 50 µg/mL [20] | IC50 (MCF7 [21]) | further results
N#CC1=C(N)Oc2c(ccc3cccnc23)C1c1ccc(Cl)cc1 (centres undefined) | 79.6% | 68.5% | 68.2% | 63.5% | 57.2% | 52.8% | 24 µg/mL (≈ 71.9 µM) | 100% | 76.8% | 100% | 91.6% | 72.9% | 82.5% | 26.8% | 49.8% | 92.6% | 67.4% | 48.2% | 27.4% | 24.9 µg/mL (≈ 74.6 µM) | IC50 (HepG2 [1]; [22]): > 50 µg/mL
N#CC1=C(N)Oc2c(ccc3cccnc23)C1c1ccc(Br)cc1 (centres undefined) | 100% | 100% | 100% | 98.3% | 96.3% | 91.8% | 43.7 µg/mL (≈ 116 µM) | 100% | 97.8% | 94.8% | 83.9% | 70% | 75.7% | 39.1% | 58.9% | 100% | 91.2% | 78.4% | 42.4% | 34.8 µg/mL (≈ 92 µM) | IC50 (HepG2 [1]; hepg2): Not Active
Cc1ccc2ccc3c(c2n1)OC(N)=C(C#N)C3c1ccc(Cl)cc1 (centres undefined) | 51.9% | 43% | 37.6% | 35.6% | 33.7% | 23.1% | 15.8 µg/mL (≈ 45.4 µM) | 94% | 66.8% | 100% | 87% | 71.4% | 78.2% | 28% | 58.2% | 79% | 55.6% | 35.8% | 27.6% | 27.9 µg/mL (≈ 80.2 µM) | IC50 (HepG2 [1]; [22]): 1.8 µg/mL (≈ 5.18 µM)
Cc1ccc2ccc3c(c2n1)OC(N)=C(C#N)C3c1ccc(Br)cc1 (centres undefined) | 77.5% | 64% | 44.9% | 39.6% | 29.3% | 22% | 22.8 µg/mL (≈ 58.1 µM) | 100% | 66.6% | 93.9% | 82.3% | 71.8% | 75.2% | 41.2% | 62.3% | 88% | 58.2% | 48.8% | 36.6% | 38.9 µg/mL (≈ 99.2 µM) | IC50 (HepG2 [1]; [22]): 5.5 µg/mL (≈ 14 µM)
N#CC1=C(/N=C/c2ccccc2)Oc2c(ccc3cccnc23)C1c1ccc(Cl)cc1 (centres undefined) | 56.1% | 48.9% | 42.5% | 37.9% | 31.4% | 18.6% | 0.6 µg/mL (≈ 1.42 µM) | 38.5% | 19.4% | 55% | 48.3% | 37.2% | 40.8% | 26.5% | 33.3% | 30.2% | 14.8% | 11.6% | 9.13% | 2.8 µg/mL (≈ 6.64 µM) | IC50 (HepG2 [1]; [22]): 2.8 µg/mL (≈ 6.64 µM)
CC(=O)NC1=C(C#N)C(c2ccc(Cl)cc2)c2ccc3ccc(C)nc3c2O1 (centres undefined) | 100% | 89.7% | 78.6% | 60.2% | 35.9% | 23.8% | 14.6 µg/mL (≈ 37.5 µM) | 96.4% | 77.5% | 96.3% | 86.5% | 68.7% | 76.8% | 46.2% | 54% | 85.2% | 53.3% | 42.5% | 22% | 38.6 µg/mL (≈ 99 µM) | IC50 (HepG2 [1]; [22]): 17.8 µg/mL (≈ 45.7 µM)
CC(=O)NC1=C(C#N)C(c2ccc(Br)cc2)c2ccc3ccc(C)nc3c2O1 (centres undefined) | 98.8% | 90.7% | 81.6% | 68.6% | 51.2% | 32.6% | 21.3 µg/mL (≈ 49 µM) | 99.8% | 86.8% | 94.8% | 79.9% | 51.2% | 65.8% | 23.4% | 32.1% | 95.1% | 71.8% | 44.5% | 22.5% | 13.5 µg/mL (≈ 31.1 µM) | IC50 (HepG2 [1]; [22]): 26.5 µg/mL (≈ 61 µM)
Nc1ncnc2c1C(c1ccc(Cl)cc1)c1ccc3cccnc3c1O2 (centres undefined) | 94.4% | 90.4% | 83.3% | 73.3% | 67.6% | 64.3% | 19.2 µg/mL (≈ 53.2 µM) | 83.1% | 74.6% | 100% | 94.5% | 75.8% | 81.2% | 45.4% | 68.8% | 78.6% | 62.1% | 42% | 26.4% | 44.6 µg/mL (≈ 124 µM) | IC50 (HepG2 [1]; [22]): > 50 µg/mL
Cc1ccc2ccc3c(c2n1)Oc1ncnc(N)c1C3c1ccc(Cl)cc1 (centres undefined) | 68.3% | 60.2% | 50.8% | 43.7% | 37% | 28.3% | 26.4 µg/mL (≈ 70.4 µM) | 100% | 90.5% | 100% | 97.3% | 89.2% | 94.5% | 70.2% | 81.7% | 98.8% | 78.9% | 51.1% | 41.6% | > 50 µg/mL | IC50 (HepG2 [1]; [22]): 6.3 µg/mL (≈ 16.8 µM)
